Consider 7 compounds from publication PMC10807245 (Protein Science : A Publication of the Protein Society, 2024).

Where a SMILES comes first, the peptide text is derived from it. Where no end group is shown, it is not given here. The star is where a group is joined. FITC = O=C1OC2(c3ccc(O)cc3Oc3cc(O)ccc32)c2ccc(NC(=S)*)cc21; Ahx = NCCCCCC(=O)O

The target in one experiment is IMPα3ΔIBB (Homo sapiens, UniProt O00629). Briefly: biochemical. In kind it is binding. The following applies: for Kd: SEM. The text has this: (§1) Recombinant IMPαΔIBB proteins were produced for structural analysis and assays to elucidate the binding profiles with PyV LTAs. For this, plasmid constructs encoding IMPα isoforms with an N‐terminal truncation removing the autoinhibitory IBB domain (ΔIBB) were synthesized (GenScript Biotech, Singapore). Codon optimized genes were designed with an N‐terminal 6xHis tag and TEV protease cleavage site and were cloned into the BamHI site of pET30a (GenScript Biotech, Singapore). […] For protein expression, the plasmids were transformed via heat shock into BL21(DE3)pLysS E. coli cells (Thermofisher Scientific, Monza, Italy) and grown in 1 L baffled flasks at room temperature using auto‐induction methods for 24–48 h (Studier, [2005]). […] Following this, the 6xHis tag was cleaved using TEV protease incubated overnight at 4°C, and then further purified via gel filtration using a Superdex 200 pg 26/600 column (Cytiva, Marlborough, USA) and tris‐buffered saline (50 mM tris, 125 mM sodium chloride, pH 8.0). […] Peak fractions were assessed for purity using SDS‐PAGE, then pooled and concentrated using 10 kDa cutoff centrifugal filters (Merck Millipore, Milan, Italy). All samples were aliquoted and stored at −80°C until further use.
Chain of IMPα3ΔIBB (O00629 64-521, stated change not applied): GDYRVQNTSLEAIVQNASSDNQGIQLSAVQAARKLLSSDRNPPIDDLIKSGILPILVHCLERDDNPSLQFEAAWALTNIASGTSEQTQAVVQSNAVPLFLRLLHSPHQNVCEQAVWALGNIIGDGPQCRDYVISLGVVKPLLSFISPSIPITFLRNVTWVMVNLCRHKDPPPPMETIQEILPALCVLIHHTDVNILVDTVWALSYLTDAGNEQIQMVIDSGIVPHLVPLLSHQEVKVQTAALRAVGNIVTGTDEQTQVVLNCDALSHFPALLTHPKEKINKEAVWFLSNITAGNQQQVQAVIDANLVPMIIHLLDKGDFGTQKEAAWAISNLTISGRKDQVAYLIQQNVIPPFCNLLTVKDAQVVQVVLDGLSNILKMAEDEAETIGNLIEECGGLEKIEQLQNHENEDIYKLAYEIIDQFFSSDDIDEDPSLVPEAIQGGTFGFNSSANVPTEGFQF
(§2) Peptides corresponding to the cNLS regions of each PyV were synthesized for use in crystallography and binding assays. An automated CEM Liberty Blue solid phase peptide synthesizer generated each peptide with an added N‐terminal fluorescein isothiocyanate (FITC) tag. The reaction was performed using DIC and Oxyma coupling reagent and Fmoc deprotection with 20% (v/v) piperidine/DMF solution, all at 90°C. Following the final coupling, peptides were cleaved from the resin using a solution of TFA/TIPS/H2O (95/2.5/2.5) for 3 h. Purification was performed with HPLC and the peptides lyophilized to powder. Prior to use, peptide stock solutions were resolubilized to 10 mM concentration, aliquoted, and stored at −20°C until use.
FP was used to quantify binding affinities of the HPyV LTA cNLSs for IMPαΔIBB proteins. Two‐fold dilutions of recombinant IMPαΔIBB proteins were titrated into black Fluotrac microplates (Greiner Bio‐One, Kremsmünster, Austria) and FITC‐cNLS peptides were added to each well before making up to a total volume of 200 μL with tris‐buffered saline. The gain adjustment was made using a well with no FITC‐NLS peptide. The CLARIOstar Plus (BMG Labtech, Mornington, Australia) plate reader measured FP values, with each assay repeated in triplicate. Binding curves to calculate K d and B max values were generated with the one site specific binding least square fit function of Prism 9 (GraphPad) software.

Experiment [1] deals with IMPαΔIBB isoforms. The experiment can be described thus: FP assays, summary over all IMPαΔIBB isoforms. In kind it is binding.
From the text: as §1, with “All samples were aliquoted and stored at −80°C until further use.” left out
(§3) FP was used to quantify binding affinities of the HPyV LTA cNLSs for IMPαΔIBB proteins. […] The CLARIOstar Plus (BMG Labtech, Mornington, Australia) plate reader measured FP values, with each assay repeated in triplicate. […]

Experiment [2] relates to IMPαΔIBB isoforms. The experiment can be described thus: Electrophoresis mobility shift assays (EMSAs) of FITC-cNLS peptides with IMPαΔIBB isoforms. The class given is binding. As to conditions: EMSA, 1.5% agarose gel, TB buffer pH 8.5, FITC-cNLS peptide, in words. On the technique in general: In EMSA bound probe runs differently from free probe, usually more slowly.
The target in experiment [3] is T1, IMPα2ΔIBB (Mus musculus, UniProt P52293). The experiment can be described thus: X-ray crystallography of cNLS peptides complexed with IMPα2ΔIBB. The class given is binding. The following applies: FITC-cNLS peptide soaked or co-crystallized, in words. The text has this:
Recombinant IMPαΔIBB proteins were produced for structural analysis and assays to elucidate the binding profiles with PyV LTAs. For this, plasmid constructs encoding IMPα isoforms with an N‐terminal truncation removing the autoinhibitory IBB domain (ΔIBB) were synthesized (GenScript Biotech, Singapore). Codon optimized genes were designed with an N‐terminal 6xHis tag and TEV protease cleavage site and were cloned into the BamHI site of pET30a (GenScript Biotech, Singapore). […] For protein expression, the plasmids were transformed via heat shock into BL21(DE3)pLysS E. coli cells (Thermofisher Scientific, Monza, Italy) and grown in 1 L baffled flasks at room temperature using auto‐induction methods for 24–48 h (Studier, [2005]). […] Peak fractions were assessed for purity using SDS‐PAGE, then pooled and concentrated using 10 kDa cutoff centrifugal filters (Merck Millipore, Milan, Italy). […]
X‐ray crystallography was employed to characterize HPyV LTA cNLSs bound to IMPα2ΔIBB. […] Protein interface interactions used in the structure figures were calculated using PDBePISA (Krissinel & Henrick, [2007]), with hydrogens removed in the PDB input models.

For a further experiment, the target named is IMPα1ΔIBB (Homo sapiens, UniProt P52292). Briefly: Fluorescence polarization (FP) assay, FITC-cNLS peptide binding to IMPα1ΔIBB. As to conditions: FITC-Ahx-cNLS peptide, two-fold dilutions of recombinant IMPα1ΔIBB, tris-buffered saline, 200 μL, one site specific binding fit, mean ± SEM, three independent experiments, read-out: Kd (nM), a1.
From the text: as §1
as §2, with “Prior to use, peptide stock solutions were resolubilized to 10 mM concentration, aliquoted, and stored at −20°C until use.” left out
as §3

The target in experiment [4] is T1, IMPα2ΔIBB. The experiment can be described thus: biochemical. The class given is binding. As to conditions: for Kd: SEM; for binding to IMPα2ΔIBB: FITC-labeled MCPyV LTA NLS peptides, EMSAs and FP assays, in words.
The target in the next experiment is IMPα5ΔIBB (Homo sapiens, UniProt P52294). Briefly: FP assay, FITC-cNLS peptide binding to IMPα5ΔIBB. As to conditions: FITC-Ahx-cNLS peptide, two-fold dilutions of recombinant IMPα5ΔIBB, tris-buffered saline, 200 μL, one site specific binding fit, mean ± SEM, three independent experiments, read-out: Kd (nM), a5.
Chain of IMPα5ΔIBB (P52294 73-538, stated change not applied): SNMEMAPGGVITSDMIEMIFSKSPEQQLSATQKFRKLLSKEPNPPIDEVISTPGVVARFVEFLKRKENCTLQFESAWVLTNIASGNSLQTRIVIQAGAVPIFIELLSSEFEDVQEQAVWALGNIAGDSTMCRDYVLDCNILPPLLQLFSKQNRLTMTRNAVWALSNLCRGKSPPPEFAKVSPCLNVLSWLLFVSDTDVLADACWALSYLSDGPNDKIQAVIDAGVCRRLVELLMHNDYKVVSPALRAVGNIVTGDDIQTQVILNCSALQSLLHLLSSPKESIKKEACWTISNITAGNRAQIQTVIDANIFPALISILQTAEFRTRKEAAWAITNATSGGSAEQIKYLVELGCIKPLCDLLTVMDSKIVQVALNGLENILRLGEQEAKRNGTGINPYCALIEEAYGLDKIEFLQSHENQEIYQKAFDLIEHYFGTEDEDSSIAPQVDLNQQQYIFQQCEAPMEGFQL
From the text: as §1
as §2, with “Prior to use, peptide stock solutions were resolubilized to 10 mM concentration, aliquoted, and stored at −20°C until use.” left out
as §3

The target of the next experiment is IMPα7ΔIBB (Homo sapiens, UniProt O60684). Briefly: FP assay, FITC-cNLS peptide binding to IMPα7ΔIBB. As to conditions: FITC-Ahx-cNLS peptide, two-fold dilutions of recombinant IMPα7ΔIBB, tris-buffered saline, 200 μL, one site specific binding fit, mean ± SEM, three independent experiments, read-out: Kd (nM), a7.
Chain of IMPα7ΔIBB (O60684 73-536, stated change not applied): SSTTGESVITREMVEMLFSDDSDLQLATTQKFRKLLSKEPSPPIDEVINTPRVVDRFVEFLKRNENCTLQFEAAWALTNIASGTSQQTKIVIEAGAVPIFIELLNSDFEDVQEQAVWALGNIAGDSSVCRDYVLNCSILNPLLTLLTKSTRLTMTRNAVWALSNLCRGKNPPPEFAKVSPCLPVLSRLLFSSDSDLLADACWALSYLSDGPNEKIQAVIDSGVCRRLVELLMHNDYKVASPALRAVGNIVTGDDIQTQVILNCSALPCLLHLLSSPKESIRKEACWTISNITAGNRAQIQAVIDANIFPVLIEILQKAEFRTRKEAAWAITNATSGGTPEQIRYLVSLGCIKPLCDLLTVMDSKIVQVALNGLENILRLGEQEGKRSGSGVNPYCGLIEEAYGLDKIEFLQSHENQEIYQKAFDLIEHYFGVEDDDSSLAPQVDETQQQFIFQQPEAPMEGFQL
From the text: as §1
as §2, with “Prior to use, peptide stock solutions were resolubilized to 10 mM concentration, aliquoted, and stored at −20°C until use.” left out
as §3

For the compound “{FITC-Ahx}-SSSDEEEPASSASVNPEEGCSQDSKYSATPPKQKKPN [HPyV7 LTA cNLS peptide]”, the “binding to IMPα3ΔIBB” value at IMPα3ΔIBB (in vitro, FP, in words) is given as “weakly binding IMPα3ΔIBB”. For the same compound, in the experiment on IMPαΔIBB isoforms [1] (in words), the IMPα isoform specificity entry is “selectively bound to IMPα3ΔIBB”. In addition, the “Kds for IMPαΔIBB isoforms” value on IMPαΔIBB isoforms [1] (span over IMPα1, 2, 3, 5, 7 ΔIBB) is recorded as “too weak to allow estimation of a Kd”. Further, the “co-migration with IMPαΔIBB isoforms” value with IMPαΔIBB isoforms [2] is reported as “a very small fraction of HPyV7 LTA monopartite cNLS co‐migrated with IMPαΔIBB isoforms”.
For “{FITC-Ahx}-MFASDDENTGSQHSTPPKKKKKV [JCPyV LTA NLS peptide, FITC-Ahx-labelled synthetic peptide of JCPyV LTA monopartite cNLS, residues 111-133]”, in the experiment on IMPαΔIBB isoforms [2], the “co-migration with IMPαΔIBB isoforms” value is listed as “co‐migrated with all IMPαΔIBB isoforms”. Besides, on IMPα2ΔIBB [3], the “binding mode in crystal structure with IMPα2ΔIBB” value is listed as “bound as a monopartite cNLS at the major site of IMPα2ΔIBB”.
In the case of `C[C@H](NC(=O)[C@H](Cc1c[nH]cn1)NC(=O)[C@H](CCCCN)NC(=O)[C@H](CCCCN)NC(=O)[C@H](CCCCN)NC(=O)[C@@H]1CCCN1C(=O)[C@@H]1CCCN1C(=O)[C@@H](NC(=O)[C@H](C)NC(=O)[C@H](CCC(N)=O)NC(=O)[C@H](CO)NC(=O)[C@H](CS)NC(=O)[C@H](CO)NC(=O)[C@@H]1CCCN1C(=O)[C@H](CCC(=O)O)NC(=O)[C@H](CCC(=O)O)NC(=O)[C@H](CCC(=O)O)NC(=O)[C@@H]1CCCN1C(=O)[C@H](C)NC(=O)[C@H](CO)NC(=O)[C@H](CCCNC(=N)N)NC(=O)[C@H](CCCCN)NC(=O)CCCCCNC(=S)Nc1ccc2c(c1)C(=O)OC21c2ccc(O)cc2Oc2cc(O)ccc21)[C@@H](C)O)C(=O)O` [KIPyV] ({FITC-Ahx}-KRSAPEEEPSCSQATPPKKKHA-OH; C-terminus assumed), the dissociation constant (Kd) came out at 22 ± 1 nM on IMPα1ΔIBB; 14 ± 3 nM on IMPα2ΔIBB [4]; 11 ± 2 nM at IMPα3ΔIBB; 10 ± 1 nM at IMPα5ΔIBB; 8 ± 1 nM at IMPα7ΔIBB.
“{FITC-Ahx}-PFSRKRTFGGS [MCPyV NLSm K280T]”: the “binding to IMPα2ΔIBB” value at IMPα2ΔIBB [4] is reported as “completely abrogated IMPα2ΔIBB binding”.
Same read-out and setting: as for “{FITC-Ahx}-PFSRKRTFGGSRSSASSASSASFTSTPPKPKKNRE [MCPyV NLSbip K280T]”, the entry is “completely abrogated IMPα2ΔIBB binding to MCPyV LTA NLSm but not NLSbip”.
As for `C[C@H](NC(=O)[C@H](CCC(N)=O)NC(=O)[C@H](CO)NC(=O)[C@H](CS)NC(=O)[C@H](CCC(N)=O)NC(=O)[C@@H]1CCCN1C(=O)[C@H](CCC(=O)O)NC(=O)[C@H](CCC(=O)O)NC(=O)[C@H](CC(=O)O)NC(=O)[C@H](CC(=O)O)NC(=O)[C@H](CCC(=O)O)NC(=O)[C@H](CCCNC(=N)N)NC(=O)[C@@H](NC(=O)[C@H](CCCNC(=N)N)NC(=O)[C@H](CCCCN)NC(=O)CCCCCNC(=S)Nc1ccc2c(c1)C(=O)OC21c2ccc(O)cc2Oc2cc(O)ccc21)[C@@H](C)O)C(=O)N[C@H](C(=O)N1CCC[C@H]1C(=O)N1CCC[C@H]1C(=O)N[C@@H](CCCCN)C(=O)N[C@@H](CCCCN)C(=O)N[C@@H](CCCCN)C(=O)N[C@@H](CCCCN)C(=O)N[C@@H](CC(=O)O)C(=O)O)[C@@H](C)O` [WUPyV] ({FITC-Ahx}-KRTREDDEEPQCSQATPPKKKKD-OH; C-terminus assumed), the Kd on IMPα1ΔIBB is 0.2 ± 0.02 nM; at IMPα2ΔIBB [4] it was 36.1 ± 2.2 nM; on IMPα3ΔIBB it was 0.3 ± 0.03 nM; on IMPα5ΔIBB it was 0.9 ± 0.04 nM; at IMPα7ΔIBB it was 0.1 ± 0.1 nM.
As for `CSCC[C@H](NC(=O)CCCCCNC(=S)Nc1ccc2c(c1)C(=O)OC21c2ccc(O)cc2Oc2cc(O)ccc21)C(=O)N[C@@H](Cc1ccccc1)C(=O)N[C@@H](C)C(=O)N[C@@H](CO)C(=O)N[C@@H](CC(=O)O)C(=O)N[C@@H](CC(=O)O)C(=O)N[C@@H](CCC(=O)O)C(=O)N[C@@H](CC(N)=O)C(=O)N[C@H](C(=O)NCC(=O)N[C@@H](CO)C(=O)N[C@@H](CCC(N)=O)C(=O)N[C@@H](Cc1c[nH]cn1)C(=O)N[C@@H](CO)C(=O)N[C@H](C(=O)N1CCC[C@H]1C(=O)N1CCC[C@H]1C(=O)N[C@@H](CCCCN)C(=O)N[C@@H](CCCCN)C(=O)N[C@@H](CCCCN)C(=O)N[C@@H](CCCCN)C(=O)N[C@@H](CCCCN)C(=O)N[C@H](C(=O)O)C(C)C)[C@@H](C)O)[C@@H](C)O` [JCPyV] ({FITC-Ahx}-MFASDDENTGSQHSTPPKKKKKV-OH; C-terminus assumed), the Kd is 76.9 ± 2 nM on IMPα1ΔIBB; 89.6 ± 3 nM at IMPα2ΔIBB [4]; 119 ± 2.8 nM on IMPα3ΔIBB; 271 ± 4.1 nM on IMPα5ΔIBB; 103 ± 1.1 nM on IMPα7ΔIBB.

The term Kd denotes the equilibrium constant for the complex coming apart.
